Columns and labels:
BI-2493 [1] = compound: T1, C[C@H]1CNCCN1c1nccc(-c2noc3c2CCC[C@@]32CCCc3sc(N)c(C#N)c32)n1 [BI-2493]; conditions: 5 days
Procedure: (§1)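 PRISM pooled barcoded cancer cell line viability screen (Broad Institute) with BI-2493 at 8 doses in threefold dilutions from 0.00457 to 10 µmol/L, 5-day treatment; curves fitted per cell line. IC50 is undefined (placeholder) for resistant lines. AUC is capped at 1, and sensitivity is reported as 1 − AUC.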

BI-2493 [2] = compound: T1, BI-2493; assay: 1 - AUC of viability dose-response curve (sensitivity) (fraction); higher = more sensitive; conditions: 5 days
Procedure: as §1

Test System	IC50 of cell viability (BI-2493 [1]) [µM]	1 - AUC of viability dose-response curve (BI-2493 [2])
KS1_CENTRAL_NERVOUS_SYSTEM	7.63	0.0533
KU1919_URINARY_TRACT	9.28	0.0267
KURAMOCHI_OVARY	> 10	0.129
KYM1_SOFT_TISSUE	3.79	0.117
KYO1_HAEMATOPOIETIC_AND_LYMPHOID_TISSUE	9.93	0.00435
KYSE70_OESOPHAGUS	5.15	0.163
KYSE140_OESOPHAGUS	> 10	0.0648
KYSE150_OESOPHAGUS	3.68	0.131
KYSE180_OESOPHAGUS	7.63	0.0499
KYSE270_OESOPHAGUS	5.56	0.113
KYSE410_OESOPHAGUS	3.85	0.15
KYSE510_OESOPHAGUS	5.11	0.22
KYSE520_OESOPHAGUS	4.02	0.136
L363_HAEMATOPOIETIC_AND_LYMPHOID_TISSUE	7.78	0.041
LAMA84_HAEMATOPOIETIC_AND_LYMPHOID_TISSUE	0.76	0.34
LC1SQSF_LUNG	> 10	0.255
LCLC103H_LUNG	8.64	0.0229
LI7_LIVER	1.52	0.213
LMSU_STOMACH	5.54	0.103
LN18_CENTRAL_NERVOUS_SYSTEM	6.48	0.0792
LN229_CENTRAL_NERVOUS_SYSTEM	8.48	0.0706
LN382_CENTRAL_NERVOUS_SYSTEM	8.95	0.0249
LN464_CENTRAL_NERVOUS_SYSTEM	4.83	0.0968
LNCAPCLONEFGC_PROSTATE	3.64	0.152

Test System	IC50 of cell viability (BI-2493 [1]) [µM]	1 - AUC of viability dose-response curve (BI-2493 [2])
LNZ308_CENTRAL_NERVOUS_SYSTEM	7.52	0.142
LOUNH91_LUNG	> 10	0.189
LOVO_LARGE_INTESTINE	1.17	0.246
LOXIMVI_SKIN	8.63	0.0241
LPS141_SOFT_TISSUE	> 10	0.0281
LS180_LARGE_INTESTINE	1.08	0.244
LS513_LARGE_INTESTINE	0.175	0.494
LS1034_LARGE_INTESTINE	0.575	0.337
LS_AUTONOMIC_GANGLIA	3.67	0.125
LU99_LUNG	8.77	0.0228
LUDLU1_LUNG	4.54	0.143
LXF289_LUNG	8.04	0.103
M059K_CENTRAL_NERVOUS_SYSTEM	9.49	0.00953
MALME3M_SKIN	6.19	0.0805
MB1_THYROID	5.5	0.165
MC116_HAEMATOPOIETIC_AND_LYMPHOID_TISSUE	5.28	0.0718
MCC26_SKIN	> 10	0.0203
MCC142_SKIN	9.48	0.0347
MCF7_BREAST	8.66	0.0329
MDAMB175VII_BREAST	8.51	0.0449
MDAMB231_BREAST	7.4	0.0666
MDAMB361_BREAST	> 10	0.14
MDAMB435S_SKIN	4.3	0.0956
MDAMB436_BREAST	> 10	0.0282

Test System	IC50 of cell viability (BI-2493 [1]) [µM]	1 - AUC of viability dose-response curve (BI-2493 [2])
MDAMB453_BREAST	5.47	0.115
MDAPCA2B_PROSTATE	> 10	0.118
MDST8_LARGE_INTESTINE	9.82	0.00776
MEG01_HAEMATOPOIETIC_AND_LYMPHOID_TISSUE	9.19	0.0154
MEL285_UVEA	6.23	0.145
MEL290_UVEA	> 10	0.105
MELHO_SKIN	7.85	0.131
MESSA_SOFT_TISSUE	3.73	0.17
MEWO_SKIN	9.6	0.0577
MFE280_ENDOMETRIUM	> 10	0.18
MFE296_ENDOMETRIUM	9.19	0.136
MFE319_ENDOMETRIUM	9.02	0.0267
MG63_BONE	9.09	0.0826
MHHES1_BONE	8.05	0.114
MHHNB11_AUTONOMIC_GANGLIA	4.36	0.177
MKN1_STOMACH	1.18	0.305
MKN7_STOMACH	8.55	0.161
MKN45_STOMACH	0.5	0.401
MKN74_STOMACH	7.22	0.117
MM1S_HAEMATOPOIETIC_AND_LYMPHOID_TISSUE	0.558	0.413
MM127_SKIN	7.34	0.0501
MMNK1_BILIARY_TRACT	4.9	0.0714
MOLM14_HAEMATOPOIETIC_AND_LYMPHOID_TISSUE	2.79	0.145
MOLP2_HAEMATOPOIETIC_AND_LYMPHOID_TISSUE	6.56	0.0525

Test System	IC50 of cell viability (BI-2493 [1]) [µM]	1 - AUC of viability dose-response curve (BI-2493 [2])
MOLT3_HAEMATOPOIETIC_AND_LYMPHOID_TISSUE	6.51	0.0789
MOLT13_HAEMATOPOIETIC_AND_LYMPHOID_TISSUE	5.21	0.13
MOLT16_HAEMATOPOIETIC_AND_LYMPHOID_TISSUE	1.81	0.297
MONOMAC1_HAEMATOPOIETIC_AND_LYMPHOID_TISSUE	7.33	0.17
MONOMAC6_HAEMATOPOIETIC_AND_LYMPHOID_TISSUE	7.72	0.149
MON_SOFT_TISSUE	2.57	0.163
MP41_UVEA	5.17	0.119
MPP89_PLEURA	9.24	0.0335
MS751_CERVIX	8.93	0.029
MSTO211H_PLEURA	3.67	0.136
NALM6_HAEMATOPOIETIC_AND_LYMPHOID_TISSUE	6.5	0.0753
NB1_AUTONOMIC_GANGLIA	3.3	0.201
NB4_HAEMATOPOIETIC_AND_LYMPHOID_TISSUE	2.53	0.175
NCCIT_TESTIS	0.878	0.192
NCIH23_LUNG	3	0.199
NCIH28_PLEURA	5.43	0.0967
NCIH82_LUNG	8.8	0.0218
NCIH196_LUNG	6.4	0.0864
NCIH226_LUNG	5.37	0.134
NCIH292_LUNG	5.7	0.0643
NCIH322_LUNG	2.29	0.257
NCIH358_LUNG	2.33	0.281
